Structures can show the parent of a compound that is named as a salt. Residues, ends and D or L forms follow the SMILES beside them. *: point of attachment. pNA = O=[N+]([O-])c1ccc(N*)cc1; Piperidide = C1CCN(*)CC1; Bz = O=C(c1ccccc1)*; NHiPr = CC(C)N*; OiPr = CC(C)O*
Legend:
Assay type in all cases: biochemical
[1] = target: T1, factor Xa (Bos taurus, UniProt P00743); experiment: Relative activity (rate of substrate hydrolysis, Δ OD/min at 405 nm); details: S-2222 = 100, 250 μl of 2 mmole/l substrate in 2500 μl, Tris buffer pH 8.3, 37° C.
T1 construct: purchased Diagnostic Reagents (product 'Diagen', 6.4 Denson U)
Protocol: (§1) Buffer Tris (tris(hydroxymethyl)aminomethane)
(§2) 0.05 mole/l, pH = 8.3, I = 0.25 (NaCl)
(§3) Enzyme Diagen (6.4 Denson U) (Diagnostic Reagents)
(§4) . 1 ampule is dissolved in 2 ml of water.
(§5) The substrate is dissolved in water to 2 mmole/l.
Substrate, +37° C.250 μl
(§6) Mix and read change of absorbance (Δ OD/min) at […]

[2] = target: T1, factor Xa; experiment: Determination of Km and Vmax (Lineweaver-Burk, hydrolysis of chromogenic substrate read at 405 nm); details: value is Vmax multiplied by 10^8; Tris buffer pH 8.3, I 0.25, 37° C., enzyme Diagen
Protocol: (§7) Km and Vmax are obtained by means of the Lineweaver-Burk equation: [formula] Enzyme and substrate are mixed in a buffer solution and the rate of hydrolysis is measured spectrophotometrically. The substrate concentration (So) is varied while the enyzme concentration is kept constant. The reciprocal velocity l/vo is then plotted against the reciprocal substrate concentration l/So, and Km and Vmax are estimated (Table 1) from the obtained Lineweaver-Burk diagram.
as §1, §2, §3, §4, §5, §6

[3] = substrate: CC[C@H](C)[C@H](NC(=O)c1ccccc1)C(=O)N[C@@H](CCC(=O)N1CCCCC1)C(=O)NCC(=O)N[C@@H](CCCNC(=N)N)C(=O)Nc1ccc([N+](=O)[O-])cc1; experiment: as above; details: other: value is Km multiplied by 10^4, Tris buffer 0.05 mole/l, pH 8.3, I 0.25 (NaCl), 37° C., enzyme Diagen, 37.0 °C
Protocol: as §7, §1, §2, §3, §4, §5, §6

[4] = substrate: CC[C@H](C)[C@H](NC(=O)c1ccccc1)C(=O)N[C@@H](CCC(=O)O)C(=O)NCC(=O)N[C@@H](CCCN=C(N)N)C(=O)Nc1ccc([N+](=O)[O-])cc1; experiment: as above; details: other: stated in the text; pH 8.3
Protocol: as §7, §1, §2, §3, §4, §5, §6

[5] = substrate: CC[C@H](C)[C@H](NC(=O)c1ccccc1)C(=O)N[C@@H](CCC(=O)NC(C)C)C(=O)NCC(=O)N[C@@H](CCCNC(=N)N)C(=O)Nc1ccc([N+](=O)[O-])cc1; experiment: as above; details: other: value is Km multiplied by 10^4, Tris buffer 0.05 mole/l, pH 8.3, I 0.25 (NaCl), 37° C., enzyme Diagen, 37.0 °C
Protocol: as §7, §1, §2, §3, §4, §5, §6

[6] = substrate: CC[C@H](C)[C@H](NC(=O)c1ccccc1)C(=O)N[C@@H](CCC(=O)OC(C)C)C(=O)NCC(=O)N[C@@H](CCCNC(=N)N)C(=O)Nc1ccc([N+](=O)[O-])cc1; experiment: as above; details: other: value is Km multiplied by 10^4, Tris buffer 0.05 mole/l, pH 8.3, I 0.25 (NaCl), 37° C., enzyme Diagen, 37.0 °C
Protocol: as §7, §1, §2, §3, §4, §5, §6

[7] = substrate: CC[C@H](C)[C@H](NC(=O)c1ccccc1)C(=O)N[C@@H](CCC(=O)OC)C(=O)NCC(=O)N[C@@H](CCCNC(=N)N)C(=O)Nc1ccc([N+](=O)[O-])cc1; experiment: as above; details: other: value is Km multiplied by 10^4, Tris buffer 0.05 mole/l, pH 8.3, I 0.25 (NaCl), 37° C., enzyme Diagen, 37.0 °C
Protocol: as §7, §1, §2, §3, §4, §5, §6

[8] = substrate: CCOC(=O)CC[C@H](NC(=O)[C@@H](NC(=O)c1ccccc1)[C@@H](C)CC)C(=O)NCC(=O)N[C@@H](CCCNC(=N)N)C(=O)Nc1ccc([N+](=O)[O-])cc1; experiment: as above; details: other: value is Km multiplied by 10^4, Tris buffer 0.05 mole/l, pH 8.3, I 0.25 (NaCl), 37° C., enzyme Diagen, 37.0 °C
Protocol: as §7, §1, §2, §3, §4, §5, §6

`CC[C@H](C)[C@H](NC(=O)c1ccccc1)C(=O)N[C@@H](CCC(=O)OC)C(=O)NCC(=O)N[C@@H](CCCNC(=N)N)C(=O)Nc1ccc([N+](=O)[O-])cc1` [Ex. 1, Bz-Ile-Glu(OMe)-Gly-Arg-pNA.HCl] (Bz-IE(OMe)GR-pNA) was tested, and the Relative activity [1] was 230 and the “Vmax · 10^8” value [2] was 8.1 mol/min · U.

With `CCOC(=O)CC[C@H](NC(=O)[C@@H](NC(=O)c1ccccc1)[C@@H](C)CC)C(=O)NCC(=O)N[C@@H](CCCNC(=N)N)C(=O)Nc1ccc([N+](=O)[O-])cc1` [Ex. 2, Bz-Ile-Glu(OEt)-Gly-Arg-pNA.HCl] (Bz-IE(OEt)GR-pNA) the Relative activity [1] was 200 and the “Vmax · 10^8” value [2] was 7.5 mol/min · U.

With `CC[C@H](C)[C@H](NC(=O)c1ccccc1)C(=O)N[C@@H](CCC(=O)OC(C)C)C(=O)NCC(=O)N[C@@H](CCCNC(=N)N)C(=O)Nc1ccc([N+](=O)[O-])cc1` [Ex. 3, Bz-Ile-Glu(OisoPr)-Gly-Arg-pNA.HCl] (Bz-IE(OiPr)GR-pNA) the Relative activity [1] was 220 and the “Vmax · 10^8” value [2] was 7.1 mol/min · U.

`CC[C@H](C)[C@H](NC(=O)c1ccccc1)C(=O)N[C@@H](CCC(=O)NC(C)C)C(=O)NCC(=O)N[C@@H](CCCNC(=N)N)C(=O)Nc1ccc([N+](=O)[O-])cc1` [Ex. 6] (Bz-IE(NHiPr)GR-pNA) was tested, and the Relative activity [1] was 340 and the “Vmax · 10^8” value [2] was 20.0 mol/min · U.

`CC[C@H](C)[C@H](NC(=O)c1ccccc1)C(=O)N[C@@H](CCC(=O)N1CCCCC1)C(=O)NCC(=O)N[C@@H](CCCNC(=N)N)C(=O)Nc1ccc([N+](=O)[O-])cc1` [Ex. 7] (Bz-IE(Piperidide)GR-pNA) was tested, and the Relative activity [1] was 300 and the “Vmax · 10^8” value [2] was 8.6 mol/min · U.

For `CC[C@H](C)[C@H](NC(=O)c1ccccc1)C(=O)N[C@@H](CCC(=O)O)C(=O)NCC(=O)N[C@@H](CCCNC(=N)N)C(=O)Nc1ccc([N+](=O)[O-])cc1` [Example S-2222, Benzoyl-Ile-Glu-Gly-Arg-p-nitroanilide, reference compound] (Bz-IEGR-pNA), the Relative activity [1] was 100 and the “Vmax · 10^8” value [2] was 8.6 mol/min · U.

B1: factor Xa (Bos taurus) (protein)
chain 1: IVGGRDCAEGECPWQALLVNEENEGFCGGTILNEFYVLTAAHCLHQAKRFTVRVGDRNTEQEEGNEMAHEVEMTVKHSRFVKETYDFDIAVLRLKTPIRFRRNVAPACLPEKDWAEATLMTQKTGIVSGFGRTHEKGRLSSTLKMLEVPYVDRSTCKLSSSFTITPNMFCAGYDTQPEDACQGDSGGPHVTRFKDTYFVTGIVSWGEGCARKGKFGVYTKVSNFLKWIDKIMKARAGAAGSRGHSEAPATWTVPPPLPL
chain 2: ANSFLEEVKQGNLERECLEEACSLEEAREVFEDAEQTDEFWSKYKDGDQCEGHPCLNQGHCKDGIGDYTCTCAEGFEGKNCEFSTREICSLDNGGCDQFCREERSEVRCSCAHGYVLGDDSKSCVSTERFPCGKFTQGRS
notes: purchased Diagnostic Reagents (product 'Diagen', 6.4 Denson U)
With B1 the Km [3] was 170 µM, the Km [4] was 830 µM and the Km [5] was 560 µM. The Km [6] was 210 µM, the Km [7] was 260 µM and the Km [8] was 290 µM.

Reference: patent publication US4276375A, “Determination of serine proteases” (AB Kabi, priority 1976, dated 1981)
